The values below come from EP1180991B1, “GAMBOGIC ACID DERIVATIVES AS ACTIVATORS OF CASPASES AND INDUCERS OF APOPTOSIS” (Cytovia, Inc., priority 1999, dated 2000).

One series deals with HEL cells. To be noted: Asano et al. 1996; cited from earlier work.
Series [1] deals with T47D cells. The series can be described thus: Morphological change of cells, phase contrast (Example 93). Format: cell-based, human. To be noted: 2.5 µM. On the procedure:
In addition, apoptotic adherent cells in culture lose their ability to remain attached to the culture dish. The ability of gambogic acid to trigger these morphological changes in T47D cells was investigated.
60 mm culture dishes were seeded with 750,000. T47D cells and the cultures were incubated under normal growth conditions (complete medium with 10% FBS) for 24 h. The cells were then treated with 2.5 µM of gambogic acid and further incubated under normal growth conditions for 2 or 6 h. Morphological changes were documented by photographing the cells under phase contrast illumination.

A further series has as its system PC-3. In words: Caspase cascade activation assay (Example 90). The format is cell-based, human. To be noted: PC-3, 24 h incubation. On the procedure: (§1) Human breast cancer cell lines T-47D and ZR-75-1, human prostate cancer cell line PC-3, human leukemia cancer cell line HL-60 and human non-transformed fibroblast cell line MRC-5 cells were grown according to media component mixtures designated by The American Type Culture Collection + 10% FCS (Life Technologies, Inc.), in a 5% CO2 -95% humidity incubator at 37° C. T-47D, ZR-75-1 and PC-3 cells were maintained at a cell density between 30 and 80% confluency and for HL-60 at a cell density of 0.1 to 0.6 x 10^6 cells/ml. Cells were harvested at 600xg and resuspended at 0.65 x 10^6 cells/ml into appropriate media + 10% FCS. […] The samples were mixed by agitation and incubated at room temperature.
(§2) The EC50 (nM) was determined by a sigmoidal dose-response calculation (Prism 2.0, GraphPad Software Inc.). Caspase Activity and Potency

A further series relates to T-47D. The series can be described thus: Caspase cascade activation assay (Example 90). The settings on record: T-47D, 24 h incubation. Format: cell-based, human. The procedure:
as §1, §2

In another series the test system is HL-60. The series can be described thus: Caspase cascade activation assay (Example 90). Format: cell-based, human. The settings on record: HL-60, 24 h incubation. On the procedure: as §1, §2
A further series has as its system ZR-75-1. In words: Caspase cascade activation assay (Example 90). The format is cell-based, human. To be noted: ZR-75-1, 24 h incubation. On the procedure:
as §1, §2

The subject of the next series is MRC-5. The series can be described thus: Caspase cascade activation assay (Example 90). The format is cell-based, human. To be noted: MRC-5 non-transformed fibroblasts, 24 h incubation. On the procedure: as §1, §2
The subject of another series is HL-60 cells. In words: PARP cleavage, western blot (Example 98). To be noted: 2.5 µM, 2 h (Fig. 5B). The format is cell-based, human. The procedure:
(§3) Cleavage of the enzyme poly(ADP)ribose polymerase (PARP) by caspase-3 and related proteases is considered to be one of the molecular hallmarks of caspase-mediated apoptosis. Therefore, the ability of gambogic acid to induce PARP cleavage in four different human tumor cell lines (Jurkat cells, HL-60 cells, T47D cells and PC3 cells) was determined.
(§4) Cells were cultured in complete growth medium containing 10% FBS and treated with gambogic acid at concentrations of 2.5 µM or 5 µM for 2 to 4 h. Control cultures were treated with a drug vehicle (DMSO), or the well-characterized apoptosis inducer, staurosporine. At the end of the apoptosis induction period, the cells were harvested, washed once with PBS, quick-frozen on dry ice, and stored at -80° C. The cells were then lysed in a standard immunoblotting lysis buffer and samples of the lysates were electrophoresed on 4% to 20% gradient polyacrylamide gels. The proteins in the gels were then transferred to PVDF membranes and probed with a commercially-available rabbit polyclonal antibody to PARP.

The subject of another series is Jurkat cells. The series can be described thus: PARP cleavage, western blot (Example 98). The format is cell-based, human. The settings on record: 2.5 µM, 2 h (Fig. 5A). On the procedure: as §3, §4
In the next series the test system is HeLa. The settings on record: Asano et al. 1996; cited from earlier work.
Series [2] concerns T47D cells. The series can be described thus: PARP cleavage, western blot (Example 98). The format is cell-based, human. The procedure:
as §3
[…] Control cultures were treated with a drug vehicle (DMSO), or the well-characterized apoptosis inducer, staurosporine. At the end of the apoptosis induction period, the cells were harvested, washed once with PBS, quick-frozen on dry ice, and stored at -80° C. The cells were then lysed in a standard immunoblotting lysis buffer and samples of the lysates were electrophoresed on 4% to 20% gradient polyacrylamide gels. The proteins in the gels were then transferred to PVDF membranes and probed with a commercially-available rabbit polyclonal antibody to PARP.

A further series has as its system KB. The settings on record: Lin et al. 1993; cited from earlier work.
Series [3] relates to T47D cells. The series can be described thus: Dose response of caspase activation, cancer cells versus normal fibroblasts (Example 96). The settings on record: T47D versus MRC-5; 2 h dose response (Fig. 4). The format is cell-based, human. On the procedure: T47D cells and MRC-5 cells were maintained and harvested as described in Example 90. […] To determine the dose response of gambogic acid for inducing caspase activity, 5 µl of 20 µM gambogic acid in RPMI media was added to wells in triplicates. Two-fold serial dilutions were made for the lower concentrations. After incubation for 2 h, the samples were removed from the 5% CO2-95% humidity incubator and caspase activity was determined by addition of a fluorogenic substrate as described in Example 90.

Another series deals with Jurkat T leukemia cells. In words: Apoptotic morphology, phase-contrast microscope (Example 95). Format: cell-based, human. The settings on record: 10 µM. The procedure:
Jurkat T leukemia cells were grown in RPMI 1640 media (Life Technologies, Inc.) + 10% FCS (Sigma Chemical Company) in a 5% CO2-95% humidity incubator at 37° C, and maintained at a cell density between 4 and 8 x 10^5 cells/ml. Cells were harvested at 200xg and resuspended at 1-2 x 10^6 cells/ml into RPMI 1640 media + 10% FCS, and 3 ml of the cells was dispensed in each of three wells of a 6-well plate. One of the wells was treated with 10 µM caspase inhibitor cbz-Val-Asp-fink (Cytovia, Inc.; WO99/18781) and the plate was incubated at 37° C in a 5% CO2-95% humidity incubator for 1 h prior to addition of gambogic acid. The wells with and without the caspase inhibitor were treated with 10 µM gambogic acid. The third well was treated with solvent (control cells). The plate was incubated at 37° C in a 5% CO2-95% humidity incubator.
At 30 min. after addition of gambogic acid an aliquot of cells from each well was taken into the capillary slides and observed under a phase-contrast microscope.

Setting [4] is: Homo sapiens, caspase activation, read-out: EC50.
Where [5] appears, read: 0.16 to 10 µM final, net RFU ratio to control.

For the compound `CC(C)=CCC[C@]1(C)C=Cc2c(O)c3c(c(CC=C(C)C)c2O1)O[C@]12C(=C[C@@H]4C[C@H]1C(C)(C)O[C@@]2(C/C=C(/C)C(=O)O)C4=O)C3=O` [Example 1, Gambogic Acid], the cytotoxicity entry with HEL cells, in the series on HeLa and in the series on KB was “cytotoxic” each time. For the same compound, the apoptotic morphological changes result was “many of the cells have taken on a rounded, phase-bright morphology” with T47D cells [1] (2 h (Fig. 1B)); “most of the cells in the culture are rounded up and are beginning to detach from the dish” in the series with T47D cells [1] (6 h (Fig. 1C)). Also, the EC50 in the series with PC-3 (setting [4]) is 1500 nM; in the series on T-47D (Homo sapiens, T47D, caspase activation, read-out: EC50), 560 nM; in the series with HL-60 (setting [4]) it was 400 nM; with ZR-75-1 (setting [4]) it was 1400 nM; with MRC-5 (Homo sapiens, MRC5, caspase activation, read-out: EC50), 1410 nM. Further, the “caspase activity (Ratio)” value was 2.1 in the series on PC-3 (setting [5]); 13.6 with T-47D (setting [5]); 6.3 with HL-60 (setting [5]); 11.9 in the series with ZR-75-1 (setting [5]); 17.8 in the series on MRC-5 (setting [5]). The PARP cleavage result with HL-60 cells was “almost complete PARP cleavage”; with Jurkat cells, “almost complete PARP cleavage”; in the series on T47D cells [2] (2.5 µM and 5 µM, 4 h (Fig. 5C)) it was “almost complete PARP cleavage”; in the series with T47D cells [2] (2.5 µM, 2 h (Fig. 5C)), “moderate induction of PARP cleavage”; in the series on T47D cells [2] (5 µM, 2 h (Fig. 5C)), “almost complete PARP cleavage”. For the same compound, the “sensitivity to induction of caspase activity” value in the series with T47D cells [3] is given as “more sensitive to induction of caspase activity than a normal fibroblast cell line MRC-5”. For the same compound, in the series with Jurkat T leukemia cells (30 min (Fig. 3B)), the apoptotic morphology result is “blebbing and cellular fragmentation”. Moreover, the “apoptotic morphology in the presence of caspase inhibitor” value in the series on Jurkat T leukemia cells (30 min, with 10 µM caspase inhibitor cbz-Val-Asp-fink (Fig. 3C)) is “prevented the morphological changes”.
